Measurements published in patent US20230017786A1, “DEXTR[…] A DISEASE-MODIFYING TREATMENT FOR NEUROPSYCHIATRIC DISORDERS AND DISEASES” (priority 2020, published 2023).
Where “and” joins values, the source holds several entries; their conditions need not be identical. Identical values can stand only once.

Tests used:
Assay type in all cases: cell-based
[1] = target: T1, human NMDA receptor GluN1-GluN2C (Homo sapiens, UniProt Q05586+Q14957); assay: FLIPR calcium assay, quinolinic acid, gentamicin, dextromethadone (Example 5 Part II), GluN1-GluN2C-CHO; conditions: 10 μM glycine; for calcium response (mean±SEM): GluN2C, n=42
T1 construct: expressed in transfected cells; host or cells: CHO
Experimental: (§1) Quinolinic acid or gentamicin CRCs were also produced, in presence of 10 μM glycine.
(§2) Test items were evaluated in FLIPR for their ability to modulate, alone or in combination, calcium entry in presence of […], using four CHO cell lines expressing diheteromeric human NMDA receptor (NMDAR): GluN-/GluN2A-CHO, GluN1-GluN2B-CHO, GluN1-GluN2C-CHO, GluN1-GluN2D-CHO.
(§3) The first aim of the study was to evaluate quinolinic acid or gentamicin CRC effect in the presence of 10 μM glycine.
(§4) FLIPR determination of intracellular calcium level was used as a read-out for NMDAR activation.
(§5) 400× compound plate was stored at −20° C. till FLIPR experimental day.
(§6) A 4× compound plate was generated from 400× compound plate by addition of up to 30 μl/well of compound buffer on FLIPR experimental day.
(§7) A FLIPR system was used to monitor intracellular calcium level in NMDAR cell lines, pre-loaded for 1 hour with Fluo-4, and then washed with assay buffer.
(§8) Y=Bottom+(Top−Bottom)/(1+10^((LogEC50−X)*HillSlope))
(§9) Test item CRC data were plotted by Prism 8 GraphPad software, in the different experimental conditions. And, column analysis, performed by Prism 8 GraphPad software, was one way ANOVA followed by Tukey's multiple comparisons test, with a single pooled variance.

[2] = target: T1, human NMDA receptor GluN1-GluN2C; assay: FLIPR calcium assay, test item effect on L-glutamate CRC, GluN1-GluN2C-CHO
Experimental: as §4
(§10) 400× compound plate was stored at −20° C. until FLIPR experimental day.
(§11) 4× compound plate was generated from 400× compound plate by addition of up to 30 μl/well of compound buffer on FLIPR experimental day.
as §7
(§12) Y=Bottom+(Top−Bottom)/(1+10^((LogEC50−Log[A])*HillSlope))

[3] = target: T2, human NMDA receptor GluN1-GluN2D (Homo sapiens, UniProt O15399+Q05586); assay: FLIPR calcium assay, quinolinic acid, gentamicin, dextromethadone (Example 5 Part II), GluN1-GluN2D-CHO; conditions: 10 μM glycine; for calcium response (mean±SEM): GluN2D, n=42
T2 construct: expressed in transfected cells; host or cells: CHO
Experimental: as §1, §2, §3, §4, §5, §6, §7, §8, §9

[4] = target: T3, human NMDA receptor GluN1-GluN2A (Homo sapiens, UniProt Q05586+Q12879); assay: FLIPR calcium assay, test item effect on L-glutamate CRC, GluN1-GluN2A-CHO
T3 construct: expressed in transfected cells; host or cells: CHO
Experimental: as §4, §10, §11, §7, §12

[5] = target: T2, human NMDA receptor GluN1-GluN2D; assay: FLIPR calcium assay, test item effect on L-glutamate CRC, GluN1-GluN2D-CHO
Experimental: as §4, §10, §11, §7, §12

[6] = target: T4, human NMDA receptor GluN1-GluN2B (Homo sapiens, UniProt Q05586+Q13224); assay: cell-based
T4 construct: expressed in transfected cells; host or cells: CHO
Experimental: as §4, §10, §11, §7, §12

[7] = target: T3, human NMDA receptor GluN1-GluN2A; assay: FLIPR calcium assay, quinolinic acid, gentamicin, dextromethadone (Example 5 Part II), GluN1-GluN2A-CHO; design: calcium response (mean±SEM): unit not given here; conditions: 10 μM glycine, GluN2A, n=42
Experimental: as §1, §2, §3, §4, §5, §6, §7, §8, §9

[8] = target: T4, human NMDA receptor GluN1-GluN2B; assay: FLIPR calcium assay, quinolinic acid, gentamicin, dextromethadone (Example 5 Part II), GluN1-GluN2B-CHO; conditions: 10 μM glycine, GluN2B, n=42
Experimental: as §1, §2, §3, §4, §5, §6, §7, §8, §9

[9] = L-glutamate alone, 10 μM glycine
[10] = calculated from EC50 and Hill slope

T2 sequence (O15399 28-1336, other chains not shown): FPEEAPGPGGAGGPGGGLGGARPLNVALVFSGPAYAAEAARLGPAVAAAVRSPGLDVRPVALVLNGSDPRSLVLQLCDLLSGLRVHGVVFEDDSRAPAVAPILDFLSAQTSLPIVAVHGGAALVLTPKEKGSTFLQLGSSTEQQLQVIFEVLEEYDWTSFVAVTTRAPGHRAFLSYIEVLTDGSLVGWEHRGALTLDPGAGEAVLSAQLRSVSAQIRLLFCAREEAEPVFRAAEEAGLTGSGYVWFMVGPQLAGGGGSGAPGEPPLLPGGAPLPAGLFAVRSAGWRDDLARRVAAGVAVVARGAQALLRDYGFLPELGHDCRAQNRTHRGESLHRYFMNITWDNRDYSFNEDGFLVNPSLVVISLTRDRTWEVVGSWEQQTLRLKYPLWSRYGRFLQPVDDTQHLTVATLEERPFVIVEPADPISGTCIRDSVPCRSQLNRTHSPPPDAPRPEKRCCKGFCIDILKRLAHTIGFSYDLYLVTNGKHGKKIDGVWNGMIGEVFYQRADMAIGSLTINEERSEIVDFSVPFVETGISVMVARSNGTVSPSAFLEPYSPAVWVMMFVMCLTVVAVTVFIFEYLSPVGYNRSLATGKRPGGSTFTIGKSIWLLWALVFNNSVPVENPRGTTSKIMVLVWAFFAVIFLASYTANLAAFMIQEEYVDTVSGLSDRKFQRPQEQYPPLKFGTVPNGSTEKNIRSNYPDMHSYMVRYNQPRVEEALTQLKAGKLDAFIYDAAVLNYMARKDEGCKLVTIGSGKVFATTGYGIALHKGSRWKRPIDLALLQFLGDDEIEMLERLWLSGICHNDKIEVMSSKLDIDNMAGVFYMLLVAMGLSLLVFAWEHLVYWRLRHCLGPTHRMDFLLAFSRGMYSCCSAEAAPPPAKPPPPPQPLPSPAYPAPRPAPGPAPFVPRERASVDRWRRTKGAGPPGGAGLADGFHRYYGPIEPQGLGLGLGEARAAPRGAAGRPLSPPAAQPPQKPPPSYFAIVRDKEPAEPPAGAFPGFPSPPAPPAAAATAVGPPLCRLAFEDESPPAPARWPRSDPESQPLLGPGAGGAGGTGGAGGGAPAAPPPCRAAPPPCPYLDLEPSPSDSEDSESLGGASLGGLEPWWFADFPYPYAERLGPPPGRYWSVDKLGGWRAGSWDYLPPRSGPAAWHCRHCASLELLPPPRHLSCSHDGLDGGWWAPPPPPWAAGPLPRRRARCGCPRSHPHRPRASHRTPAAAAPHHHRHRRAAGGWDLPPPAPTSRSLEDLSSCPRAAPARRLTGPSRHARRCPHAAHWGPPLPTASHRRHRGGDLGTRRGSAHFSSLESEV
T1 sequence (Q14957 20-1233, other chains not shown): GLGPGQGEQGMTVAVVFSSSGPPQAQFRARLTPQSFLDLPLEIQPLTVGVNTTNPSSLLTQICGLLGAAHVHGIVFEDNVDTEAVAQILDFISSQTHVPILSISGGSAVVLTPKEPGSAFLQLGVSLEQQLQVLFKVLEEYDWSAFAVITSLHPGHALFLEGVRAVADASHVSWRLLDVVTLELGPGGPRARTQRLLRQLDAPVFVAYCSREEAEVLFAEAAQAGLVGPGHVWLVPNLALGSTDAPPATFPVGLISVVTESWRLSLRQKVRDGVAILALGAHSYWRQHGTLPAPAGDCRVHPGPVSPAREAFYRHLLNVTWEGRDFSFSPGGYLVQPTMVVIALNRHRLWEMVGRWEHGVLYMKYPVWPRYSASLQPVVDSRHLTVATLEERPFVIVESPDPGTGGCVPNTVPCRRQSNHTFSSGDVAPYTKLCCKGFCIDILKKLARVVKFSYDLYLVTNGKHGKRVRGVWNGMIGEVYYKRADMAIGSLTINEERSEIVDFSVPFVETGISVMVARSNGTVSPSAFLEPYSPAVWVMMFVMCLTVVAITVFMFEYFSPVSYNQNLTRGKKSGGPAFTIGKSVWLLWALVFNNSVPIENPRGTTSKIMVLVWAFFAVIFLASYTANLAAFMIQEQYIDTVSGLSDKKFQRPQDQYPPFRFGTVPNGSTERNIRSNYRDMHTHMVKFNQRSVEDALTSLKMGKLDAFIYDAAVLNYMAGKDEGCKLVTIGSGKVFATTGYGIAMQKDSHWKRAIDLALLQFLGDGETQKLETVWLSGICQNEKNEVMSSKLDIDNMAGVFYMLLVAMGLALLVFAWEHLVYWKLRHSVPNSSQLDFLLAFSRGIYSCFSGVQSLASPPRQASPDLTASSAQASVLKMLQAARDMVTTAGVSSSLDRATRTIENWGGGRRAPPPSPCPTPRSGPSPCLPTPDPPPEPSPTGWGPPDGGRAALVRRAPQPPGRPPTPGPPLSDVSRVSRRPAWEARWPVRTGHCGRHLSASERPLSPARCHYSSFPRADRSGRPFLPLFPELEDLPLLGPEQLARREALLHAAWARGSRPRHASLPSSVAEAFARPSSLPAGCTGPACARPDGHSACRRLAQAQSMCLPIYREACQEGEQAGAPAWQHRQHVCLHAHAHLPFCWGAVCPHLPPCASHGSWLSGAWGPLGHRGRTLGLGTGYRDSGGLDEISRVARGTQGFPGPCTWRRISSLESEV
T4 sequence (Q13224 27-1484, other chains not shown): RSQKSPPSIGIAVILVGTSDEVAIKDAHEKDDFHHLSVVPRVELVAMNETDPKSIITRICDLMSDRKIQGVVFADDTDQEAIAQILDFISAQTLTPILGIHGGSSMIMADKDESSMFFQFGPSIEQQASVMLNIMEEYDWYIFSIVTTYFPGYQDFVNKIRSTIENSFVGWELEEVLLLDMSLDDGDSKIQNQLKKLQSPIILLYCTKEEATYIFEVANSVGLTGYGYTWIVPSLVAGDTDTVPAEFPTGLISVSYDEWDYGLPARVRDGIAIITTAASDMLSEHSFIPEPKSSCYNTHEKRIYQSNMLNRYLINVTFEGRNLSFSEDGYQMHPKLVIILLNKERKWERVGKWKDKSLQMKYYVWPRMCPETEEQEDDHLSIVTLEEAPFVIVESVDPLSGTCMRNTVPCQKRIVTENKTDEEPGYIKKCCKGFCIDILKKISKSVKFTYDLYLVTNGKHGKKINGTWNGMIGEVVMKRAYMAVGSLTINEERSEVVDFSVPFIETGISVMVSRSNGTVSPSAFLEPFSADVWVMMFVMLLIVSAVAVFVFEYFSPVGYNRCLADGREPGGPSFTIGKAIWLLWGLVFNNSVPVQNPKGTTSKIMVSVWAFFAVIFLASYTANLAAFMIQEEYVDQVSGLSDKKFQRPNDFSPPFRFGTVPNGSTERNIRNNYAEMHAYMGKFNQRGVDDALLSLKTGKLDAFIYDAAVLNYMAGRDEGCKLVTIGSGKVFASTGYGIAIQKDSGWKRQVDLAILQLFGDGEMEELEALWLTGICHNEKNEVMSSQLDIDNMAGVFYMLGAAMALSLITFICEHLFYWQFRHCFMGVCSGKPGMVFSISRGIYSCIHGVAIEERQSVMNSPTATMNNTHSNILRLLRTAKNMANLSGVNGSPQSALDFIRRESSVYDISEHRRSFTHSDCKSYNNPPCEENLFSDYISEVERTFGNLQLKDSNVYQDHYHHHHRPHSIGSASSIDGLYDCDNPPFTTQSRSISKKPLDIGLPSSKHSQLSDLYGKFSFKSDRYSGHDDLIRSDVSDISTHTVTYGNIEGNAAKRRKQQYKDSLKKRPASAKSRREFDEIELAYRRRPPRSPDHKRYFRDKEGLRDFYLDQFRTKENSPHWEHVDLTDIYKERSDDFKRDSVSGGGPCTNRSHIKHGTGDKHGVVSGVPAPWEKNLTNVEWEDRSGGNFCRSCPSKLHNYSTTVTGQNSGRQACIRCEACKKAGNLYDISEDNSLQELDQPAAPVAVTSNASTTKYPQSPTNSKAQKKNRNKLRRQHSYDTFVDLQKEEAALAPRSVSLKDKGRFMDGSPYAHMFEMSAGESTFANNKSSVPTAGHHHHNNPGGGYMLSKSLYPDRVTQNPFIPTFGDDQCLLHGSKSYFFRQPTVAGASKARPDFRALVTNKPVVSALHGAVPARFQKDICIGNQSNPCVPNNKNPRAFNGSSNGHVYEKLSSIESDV

N[C@@H](CCC(=O)O)C(=O)O [L-glutamate, L-glutamic acid]
calcium response (mean±SEM) ([1]; 0.04 μM L-Glu): −1.2 ± 0.6 | calcium response (mean±SEM) ([1]; 0.2 μM L-Glu): 30 ± 1.7 | intracellular calcium increase elicited by 0.2 μM L-glutamate ([1]; L-glutamate alone): 30±1.7% | calcium response (mean±SEM) ([1]; Table 41: 0.04 μM L-Glu): −1.2 ± 0.6 | calcium response (mean±SEM) ([1]; Table 43: 0.2 μM L-Glu): 30 ± 1.7 | Bottom [2, 9]: 0.88 | HillSlope [2, 9]: 1.5 | LogEC50 [2, 9]: −7.1 | Span [2, 9]: 105 | Top [2, 9]: 106 | ECF, F=5 [2, 10]: 120 nM | ECF, F=10 [2, 10]: 200 nM | ECF, F=20 [2, 10]: 350 nM | ECF, F=30 [2, 10]: 500 nM | ECF, F=40 [2, 10]: 660 nM | ECF, F=90 [2, 10]: 3.76 µM | ECF, F=95 [2, 10]: 6.19 µM | ECF, F=99 (maximal effect) [2, 10]: 19 µM | calcium response (mean±SEM) ([3]; 0.04 μM L-Glu): 18 ± 1.2 | calcium response (mean±SEM) ([3]; 0.2 μM L-Glu): 92 ± 2.0 | efficacy of 0.2 μM L-glutamate alone [3]: 92±2.0% | calcium response (mean±SEM) ([3]; Table 41: 0.04 μM L-Glu): 18 ± 1.2 | calcium response (mean±SEM) ([3]; Table 43: 0.2 μM L-Glu): 92 ± 2.0 | Bottom [4, 9]: −0.62 | HillSlope [4, 9]: 1.0 | Span [4, 9]: 107 | Top [4, 9]: 106 | ECF, F=5 [4, 10]: 160 nM | ECF, F=10 [4, 10]: 280 nM | ECF, F=20 [4, 10]: 630 nM | ECF, F=30 [4, 10]: 1.07 µM | ECF, F=40 [4, 10]: 1.67 µM | ECF, F=90 [4, 10]: 23 µM | ECF, F=95 [4, 10]: 48 µM | ECF, F=99 (maximal effect) [4, 10]: 250 µM | Bottom [5, 9]: 5.3 | HillSlope [5, 9]: 1.6 | LogEC50 [5, 9]: −7.5 | Span [5, 9]: 99 | Top [5, 9]: 105 | ECF, F=5 [5, 10]: 54 nM | ECF, F=10 [5, 10]: 86 nM | ECF, F=20 [5, 10]: 140 nM | ECF, F=30 [5, 10]: 200 nM | ECF, F=40 [5, 10]: 260 nM | ECF, F=90 [5, 10]: 1.34 µM | ECF, F=95 [5, 10]: 2.14 µM | ECF, F=99 (maximal effect) [5, 10]: 6 µM and 6.01 µM | Bottom [6]: 1.7 | ECF, F=5 [6]: 140 nM | ECF, F=10 [6]: 240 nM | ECF, F=20 [6]: 450 nM | ECF, F=30 [6]: 680 nM | ECF, F=40 [6]: 950 nM | ECF, F=90 [6]: 7.05 µM | ECF, F=95 [6]: 13 µM | ECF, F=99 (maximal effect) [6]: 45 µM | HillSlope [6]: 1.3 | Span [6]: 109 | Top [6]: 111 | calcium response (mean±SEM) ([7]; 0.04 μM L-Glu): 1.7 ± 0.3 | calcium response (mean±SEM) ([7]; 0.2 μM L-Glu): 22 ± 0.7 | calcium response (mean±SEM) ([7]; Table 41: 0.04 μM L-Glu): 1.7 ± 0.3 | calcium response (mean±SEM) ([7]; Table 43: 0.2 μM L-Glu): 22 ± 0.7 | calcium response (mean±SEM) ([8]; 0.04 μM L-Glu): −0.9 ± 0.6 | calcium response (mean±SEM) ([8]; 0.2 μM L-Glu): 18 ± 1.2 | calcium response (mean±SEM) ([8]; Table 41: 0.04 μM L-Glu): 0.9 ± 0.6 | calcium response (mean±SEM) ([8]; Table 43: 0.2 μM L-Glu): 18 ± 1.2
